Patent US20210395327A1, “Growth Hormone-Releasing Hormone Antagonists and Uses Thereof” (United States Government As Represented By The Department …, priority 2019, published 2021)
Non-standard residues stand in square brackets, D forms with d. Residues, ends and D or L forms follow the SMILES beside them. *: point of attachment. Phenylacetyl(2,3,4,5,6-F5) = O=C(Cc1c(F)c(F)c(F)c(F)c1F)*; Phe(F5) = N[C@@H](Cc1c(F)c(F)c(F)c(F)c1F)C(=O)O; Phe(4-Cl) = N[C@@H](Cc1ccc(Cl)cc1)C(=O)O; hArg = N=C(N)NCCCC[C@H](N)C(=O)O; 12Ado = NCCCCCCCCCCCC(=O)O; Nle = CCCC[C@H](N)C(=O)O; Orn = NCCC[C@H](N)C(=O)O; Abu = CC[C@H](N)C(=O)O

Assays:
HCC827 lung cancer cells = experiment: In vitro cell viability, HCC827; format: cell-based, human; conditions: Table 3B; 5 μM for 72 H; MIA-602 = 1
Procedure, shortened: (§1)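 Human tumour lines were exposed to GHRH antagonist at 1, 2.5 or 5 μM for 72 h with medium refreshed every 48 h, after 24 h in low-serum (0.5% FBS) medium. Cell viability (CellTiter 96) was expressed as inhibition relative to MIA602.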

[1] = test system: NCI-N87 stomach cancer cells; experiment: In vitro cell viability (CellTiter 96), N87; format: cell-based, human; conditions: Table 3B; 5 μM for 72 H; MIA-602 = 1
Method: The inhibitory effects of the various synthesized GHRH antagonists were tested in cell proliferation assays in various human cancer cell lines including stomach cancer (KATOIII, N87), colon cancer (HT-29), urothelial cancer (J82, RT4), pancreatic cancer (PANC-1, CFPAC-1), prostatic cancer (PC3), breast cancer (MX-1, HCC1806), ovarian cancer (SK-OV-3, OVCAR-3) and lung cancer (HCC827, H460).
(§2) Cell culture. Human cancer cell lines including pancreatic (PANC-1 and CFPAC-1), lung (HCC827 and H460), stomach (NCI-N87 and KATOIII), urothelial (J82, RT4), prostatic (PC3), breast (MX-1 and HCC 1806), colorectal (HT-29), and ovarian (SK-OV-3 and OVCAR-3) were obtained from the American Type Culture Collection (ATCC) and cultured at 37° C. in a humidified 95% air/5% CO2 atmosphere in the medium recommended by ATCC.
In vitro cell viability. Cell viability was analyzed as follows: cancer cells including pancreatic (PANC-1 and CFPAC-1), lung (HCC827 and H460), stomach (NCI-N87 and KATOIII), urothelial (J82, RT4), prostatic (PC3) and breast (MX-1 and HCC 1806), colorectal (HT-29) and ovarian (SK-OV-3 and OVCAR-3) were grown on 96 well plates to ˜60% confluence, the cells were starved for 24 h in culture medium containing 0.5% FBS. Cells were then treated with GHRH antagonists MIA602 AVR compounds at concentrations of 1, 2.5 or 5 μM, or vehicle (0.1% DMSO) in quintuplicates for 72 hours. The medium was replaced every 48 hours. Cell viability was measured using CellTiter 96 aqueous one solution kit (Promega). Inhibitory effects of tested AVR compounds in comparison to that of MIA602 are presented as inhibitory potency.
Inhibitory effects of selected AVR compounds in comparison to that of MIA602 are presented as inhibitory potency (e.g., percentage of inhibition). […] The cell lines tested including lung cancer HCC827 (FIG. 2A), pancreatic cancer CFPAC-1 (FIG. 2B), stomach cancer N87 (FIG. 2C), colon cancer HT-29 (FIG. 2D), breast cancers MX-1 and HCC1806 (FIGS. 2 E, F). Based on the results of cell proliferation assay after cancer cells were treated with antagonist at concentration of 5 μM for 72H, the relative inhibitory potency of AVR antagonists in comparison to MIA-602 is summarized in Table 3 A and B. Over 60 AVR compounds were tested in 12 cancer cell lines.
Based on the results of cell proliferation assay after cancer cells were treated with antagonist at concentration of 5 µM for 72H, * at concentration of 2 µM for 72 H.

[2] = test system: stomach cancer N87 xenograft; experiment: Xenograft tumor growth in nude mice, N87; format: in vivo; conditions: for % Inhibition: vs control
Method: The peptides' activity was compared with GHRH antagonist MIA-602. All statistical analyzses were performed from comparing GHRA antagonists to non-treated tumor (control).
Peptides and chemicals. GHRH antagonists MIA-602 and AVR-GHRH antagonists (see Table 2 above) were synthesized by solid phase methods and purified by HPLC. The peptides were dissolved in DMSO and further diluted in 10% 1,2-propanediol. The final concentration of peptides was 50 µg/ml in 10% 1,2-propanediol containing 0.1% of DMSO.
as §2, with “(NCI-N87), prostate” for “(NCI-N87 and KATOIII), urothelial (J82, RT4), prostatic”, “brest” for “breast”, “HCC-1806),” for “HCC 1806),”
Xenograft models of human cancers in nude mice. Female athymic (NCr nu/nu) nude mice, 5- to 6-weeks-old, obtained from the Envigo labs (Tampa, Fla.), were housed in laminar airflow cabinets under pathogen-free conditions with a 12-h light/12-h dark schedule, and were fed autoclaved standard chow and water. To generate mice with xenografted tumors, tumor xenografts were initiated by subcutaneous (s.c.) injection of 107 human cancer cells into female nude mice. After about 4 weeks the resulting tumors were dissected and collected after removing necrosis tissues. The tumors were then cut into particles with size of 3 mm3 and transplanted s.c. by trocar needle into experimental animals. When tumors grew to the size of 50-60 mm3 (by volume), […] of 5 μg of GHRH antagonists MIA-602 or AVR-compounds (2-10 μg as indicated), or vehicle solutions (0.1% DMSO in 10% 1,2-propanediol) respectively. Tumor sizes were measured weekly.
Statistical analysis. One-way ANOVA followed by Bonferroni comparison were performed. Data are expressed as Mean±SEM. To determine statistical significance between animal groups, two-tailed Student's t-test was conducted. Differences were considered significant when p<0.05.
Results. […] FIG. 1A-N represents in vivo inhibition of tumor growth during the treatment with GHRH antagonist MIA-602 and selected AVR antagonists in nude mice xenografted with various human tumors including pancreatic cancer PANC-1 (FIG. 1A) and CFPAC-1 (FIG. 1I); lung cancer HCC827 (FIGS. 1B, C) and H460 (FIG. 1H); stomach cancer N87 (FIGS. 1D-F); colon cancer HT-29 (FIG. 1G); breast cancer MX-1 and HCC-1806 (FIGS. 1J, K); ovarian cancer SK-OV-3 and OVACAR-3 (FIGS. 1 L, M) and prostate cancer PC3 (FIG. 1N). See also Table 5.

[3] = test system: CFPAC-1 pancreatic cancer cells; experiment: In vitro cell viability, CFPAC-1; format: cell-based, human; conditions: Table 3B; 5 μM for 72 H; MIA-602 = 1
Procedure, shortened: as §1

[4] = Table 4E, Stomach Ca N87, 4 weeks, 2 μg/day s.c.
[5] = Table 4E, Stomach Ca N87, 4 weeks, 5 μg/day s.c.
[6] = Table 4D, Stomach Ca N87, 10 weeks, 2 μg/day s.c.

| SMILES | In vitro relative inhibitory potency in comparison to MIA-602, HCC827 (HCC827 lung cancer cells) | In vitro relative inhibitory potency in comparison to MIA-602, NCI-N87 [1] | Tumor Growth % [2, 4] [%] | % Inhibition [2, 4] [%] | Tumor Growth % [2, 5] [%] | % Inhibition [2, 5] [%] | In vitro relative inhibitory potency in comparison to MIA-602, CFPAC-1 [3] | Tumor Size (mm^3) [2, 6] [mm^3] | % Inhibition [2, 6] [%] |
| --- | --- | --- | --- | --- | --- | --- | --- | --- | --- |
| CCCC[C@H](NC(=O)[C@@H](NC(=O)[C@H](CC(=O)O)NC(=O)[C@H](CCC(N)=O)NC(=O)[C@H](CC(C)C)NC(=O)[C@H](CC(C)C)NC(=O)[C@H](CCCN)NC(=O)[C@H](Cc1c[nH]cn1)NC(=O)[C@H](C)NC(=O)[C@H](CO)NC(=O)[C@H](CC(C)C)NC(=O)[C@H](CCC(N)=O)NC(=O)[C@H](CC)NC(=O)[C@H](CC(C)C)NC(=O)[C@@H](NC(=O)[C@H](CCCN)NC(=O)[C@H](Cc1c[nH]cn1)NC(=O)[C@H](Cc1ccc(OC)cc1)NC(=O)[C@H](CCCCNC(=N)N)NC(=O)[C@H](C)NC(=O)[C@@H](NC(=O)[C@H](Cc1c(F)c(F)c(F)c(F)c1F)NC(=O)[C@@H](NC(=O)[C@H](C)NC(=O)[C@H](CC(=O)O)NC(=O)[C@@H](CCCNC(=N)N)NC(=O)[C@H](Cc1ccc(O)cc1)NC(=O)CCCCCCCCCCCNC(=O)Cc1c(F)c(F)c(F)c(F)c1F)[C@@H](C)CC)[C@@H](C)O)C(C)C)[C@@H](C)CC)C(=O)N[C@H](CCCNC(=N)N)C(=O)N[C@@H](CCCCNC(=N)N)C(=O)NCCCCCCCCCCCC(N)=O [AVR-553, 5FPhAC-Ada-Tyr-DArg-Asp-Ala-Ile-5FPhe-Thr-Ala-Har-Tyr(Me)-His-Orn-Val-Leu-Abu-Gln-Leu-Ser-Ala-His-Orn-Leu-Leu-Gln-Asp-Ile-Nle-DArg-Har-Ada-NH2] ({Phenylacetyl(2,3,4,5,6-F5)-12Ado}-Y[dR]DAI[Phe(F5)]TA[hArg]Y(Me)H[Orn]VL[Abu]QLSAH[Orn]LLQDI[Nle][dR][hArg][12Ado]-NH2) | 2.582 | 1.26 | 532.7 | 40.3 | 283.3 | 68.3 | – | – | – |
| CCCC[C@H](NC(=O)[C@@H](NC(=O)[C@H](CC(=O)O)NC(=O)[C@H](CCC(N)=O)NC(=O)[C@H](CC(C)C)NC(=O)[C@H](CC(C)C)NC(=O)[C@H](CCCCN)NC(=O)[C@H](CCCNC(=N)N)NC(=O)[C@H](C)NC(=O)[C@H](CO)NC(=O)[C@H](CC(C)C)NC(=O)[C@H](CCC(N)=O)NC(=O)[C@H](CC)NC(=O)[C@H](CC(C)C)NC(=O)[C@@H](NC(=O)[C@H](CCCCN)NC(=O)[C@H](CCCNC(=N)N)NC(=O)[C@H](Cc1ccc(OC)cc1)NC(=O)[C@H](CCCCNC(=N)N)NC(=O)[C@H](CC(N)=O)NC(=O)[C@@H](NC(=O)[C@H](Cc1ccc(Cl)cc1)NC(=O)[C@@H](NC(=O)[C@H](C)NC(=O)[C@H](CC(=O)O)NC(=O)[C@@H](CCCNC(=N)N)NC(=O)[C@H](Cc1ccc(O)cc1)NC(=O)CCCCCCCCCCCNC(=O)Cc1c(F)c(F)c(F)c(F)c1F)[C@@H](C)CC)[C@@H](C)O)C(C)C)[C@@H](C)CC)C(=O)N[C@H](CCCNC(=N)N)C(=O)N[C@@H](CCCCNC(=N)N)C(=O)NCCCCCCCCCCCC(N)=O [AVR-333, 5FPhAC-Ada-Tyr-DArg-Asp-Ala-Ile-Cpa-Thr-Asn-Har-Tyr(Me)-Arg-Lys-Val-Leu-Abu-Gln-Leu-Ser-Ala-Arg-Lys-Leu-Leu-Gln-Asp-Ile-Nle-DArg-Har-Ada-NH2] ({Phenylacetyl(2,3,4,5,6-F5)-12Ado}-Y[dR]DAI[Phe(4-Cl)]TN[hArg]Y(Me)RKVL[Abu]QLSARKLLQDI[Nle][dR][hArg][12Ado]-NH2) | 1.177 | 1.4 | – | – | – | – | 2.288 | 454.00 | 62.9 |
